# In the supplement of paper PMC11061612:
# Legend:
# Experiment in all cases: Bliss excess, mean over the matrix (fraction); higher = more synergy
# [1] = system: AN3-CA (Endometrial Carcinoma)
# Method in brief: (§1)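 Cell lines grown in DMEM/F12 or RPMI with 10% FBS were plated in 1536-well plates and held 24 hours at 37°C, 5% CO2 before 72 hours of exposure to two-drug dose matrices, with DMSO typically at 0.2%. CellTiter-Glo 2.0 luminescence gave viability, which was converted to inhibition. Vehicle wells were set to 0 and blank wells to 1. Combination Emax is the second-highest inhibition in the matrix, and Bliss excess is the observed combination effect minus the expected EA + EB − EA·EB, where EA and EB are the single-agent effects.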
# [2] = system: OVTOKO (Ovarian Carcinoma)
# Method in brief: as §1
# [3] = system: EB-3 (Burkitt's Lymphoma)
# Method in brief: as §1
# [4] = system: BALL-1 (B-Lymphoblastic Leukemia)
# Method in brief: as §1
# [5] = system: RERF-LC-KJ (Lung Adenocarcinoma)
# Method in brief: as §1
# [6] = system: AsPC-1 (Pancreatic Carcinoma)
# Method in brief: as §1
# [7] = system: SJRH30 (Rhabdomyosarcoma)
# Method in brief: as §1
# [8] = system: NCI-H810 (Non-Small Cell Lung Carcinoma)
# Method in brief: as §1
# [9] = system: HSC-3 (Oral Cavity Carcinoma)
# Method in brief: as §1
# KYM-1 (Rhabdomyosarcoma) = system: KYM-1 (Rhabdomyosarcoma)
# Method in brief: as §1
# [10] = system: NCI-H1755 (Lung Adenocarcinoma)
# Method in brief: as §1
# [11] = system: OV-90 (Ovarian Carcinoma)
# Method in brief: as §1
# [12] = system: SNU-175 (Colorectal Carcinoma)
# Method in brief: as §1
# RT4 (Bladder Carcinoma) = system: RT4 (Bladder Carcinoma)
# Method in brief: as §1
# [13] = system: PC-14 (Lung Adenocarcinoma)
# Method in brief: as §1
# [14] = system: RPMI-8866 (Chronic Myelogenous Leukemia)
# Method in brief: as §1
# [15] = system: KYSE-70 (Esophageal Squamous Cell Carcinoma)
# Method in brief: as §1
# [16] = system: HTC-C3 (Thyroid Gland Carcinoma)
# Method in brief: as §1
# [17] = system: NCI-H1155 (Non-Small Cell Lung Carcinoma)
# Method in brief: as §1
# [18] = system: COLO-684 (Endometrial Carcinoma)
# Method in brief: as §1
structure (smiles),measurement,setting,value
"C[C@@H](c1ccc2nccn2c1)n1nnc2ncc(-c3cnn(C)c3)nc21 [Savolitinib] + CC1(C)CCC(CN2CCN(c3ccc(C(=O)NS(=O)(=O)c4ccc(NCC5CCOCC5)c([N+](=O)[O-])c4)c(Oc4cnc5[nH]ccc5c4)c3)CC2)=C(c2ccc(Cl)cc2)C1 [Venetoclax] (first compound max 1 µM, 7x7, partner max 1 µM)",Bliss excess,[1],-0.0499
same,Bliss excess,[2],-0.0675
same,Bliss excess,[3],-0.0614
same,Bliss excess,[4],-0.0306
same,Bliss excess,[5],-0.077
same,Bliss excess,[6],-0.0743
same,Bliss excess,[7],-0.0577
same,Bliss excess,[8],-0.0517
same,Bliss excess,[9],-0.0383
same,Bliss excess,KYM-1 (Rhabdomyosarcoma),-0.0133
same,Bliss excess,[10],-0.05
same,Bliss excess,[11],-0.063
same,Bliss excess,[12],-0.0764
same,Bliss excess,RT4 (Bladder Carcinoma),-0.055
same,Bliss excess,[13],-0.0276
same,Bliss excess,[14],-0.0452
same,Bliss excess,[15],-0.0504
same,Bliss excess,[16],-0.053
same,Bliss excess,[17],-0.0365
same,Bliss excess,[18],-0.0458
"CN(CCO)CC[C@H](CSc1ccccc1)Nc1ccc(S(=O)(=O)NC(=O)c2ccc(N3CCC([C@@H](O)c4ccccc4-c4ccc(Cl)cc4)CC3)cc2)cc1S(=O)(=O)C(F)(F)F [AZD4320] + CCN(CCO)CCCOc1ccc2c(Nc3cc(CC(=O)Nc4cccc(F)c4)[nH]n3)ncnc2c1 [AZD2811] (first compound max 1 µM, 7x7, partner max 1 µM)",Bliss excess,[1],0.101
same,Bliss excess,[2],-0.0324
same,Bliss excess,[3],-0.0065
same,Bliss excess,[4],0.14
same,Bliss excess,[5],-0.028
same,Bliss excess,[6],-0.0294
same,Bliss excess,[7],0.108
same,Bliss excess,[8],0.0178
same,Bliss excess,[9],0.0257
same,Bliss excess,KYM-1 (Rhabdomyosarcoma),-0.01
same,Bliss excess,[10],-0.0024
same,Bliss excess,[11],0.0409
same,Bliss excess,[12],0.0362
same,Bliss excess,RT4 (Bladder Carcinoma),0.163
same,Bliss excess,[13],0.0099
same,Bliss excess,[14],0.234
same,Bliss excess,[15],0.0483
same,Bliss excess,[16],-0.0348
same,Bliss excess,[17],0.127
same,Bliss excess,[18],-0.0217
"Cc1c2c(nn1C)CSCc1cc(n(C)n1)CSc1cc(c3ccccc3c1)OCCCc1c(C(=O)O)n(C)c3c-2c(Cl)ccc13 [AZD5991] + CN(C)CCCOc1ccc(-c2ccc3ncc4c(c3c2)n(C2CCOCC2)c(=O)n4C)cn1 [AZD0156] (first compound max 1 µM, 7x7, partner max 1 µM)",Bliss excess,[1],-0.0338
same,Bliss excess,[2],0.0042
same,Bliss excess,[3],-0.0005
same,Bliss excess,[4],0.0361
same,Bliss excess,[5],-0.0296
same,Bliss excess,[6],-0.0137
same,Bliss excess,[7],0.0026
same,Bliss excess,[8],-0.0034
same,Bliss excess,[9],0.0527
same,Bliss excess,KYM-1 (Rhabdomyosarcoma),0.0046
same,Bliss excess,[10],-0.0214
same,Bliss excess,[11],-0.0068
same,Bliss excess,[12],-0.0515
same,Bliss excess,RT4 (Bladder Carcinoma),0.0149
same,Bliss excess,[13],0.0236
same,Bliss excess,[14],-0.026
same,Bliss excess,[15],0.0286
same,Bliss excess,[16],-0.0082
same,Bliss excess,[17],0.0521
same,Bliss excess,[18],-0.0546
"C=CCn1c(=O)c2cnc(Nc3ccc(N4CCN(C)CC4)cc3)nc2n1-c1cccc(C(C)(C)O)n1 [AZD1775] + C[C@@H]1COCCN1C2=NC(=NC(=C2)C3(CC3)[S@](=N)(=O)C)C4=C5C=CNC5=NC=C4 [AZD6738] (first compound max 1 µM, partner max 10 µM)",Bliss excess,[1],-0.0159
same,Bliss excess,[2],-0.0308
same,Bliss excess,[3],0.0002
same,Bliss excess,[4],0.0441
same,Bliss excess,[5],-0.0151
same,Bliss excess,[6],-0.0571
same,Bliss excess,[7],0.0467
same,Bliss excess,[8],0.0223
same,Bliss excess,[9],0.0038
same,Bliss excess,KYM-1 (Rhabdomyosarcoma),0.0587
same,Bliss excess,[10],-0.0276
same,Bliss excess,[11],-0.102
same,Bliss excess,[12],0.039
same,Bliss excess,RT4 (Bladder Carcinoma),-0.0068
same,Bliss excess,[13],-0.005
same,Bliss excess,[14],0.0078
same,Bliss excess,[15],0.0329
same,Bliss excess,[16],0.101
same,Bliss excess,[17],0.0817
same,Bliss excess,[18],0.0245
"CC1(C)CCC(CN2CCN(c3ccc(C(=O)NS(=O)(=O)c4ccc(NCC5CCOCC5)c([N+](=O)[O-])c4)c(Oc4cnc5[nH]ccc5c4)c3)CC2)=C(c2ccc(Cl)cc2)C1 [Venetoclax] + CCN(CCO)CCCOc1ccc2c(Nc3cc(CC(=O)Nc4cccc(F)c4)[nH]n3)ncnc2c1 [AZD2811] (first compound max 1 µM, 7x7, partner max 1 µM)",Bliss excess,[1],0.0345
same,Bliss excess,[2],-0.0183
same,Bliss excess,[3],0.0036
same,Bliss excess,[4],0.0632
same,Bliss excess,[5],-0.0222
same,Bliss excess,[6],-0.0755
same,Bliss excess,[7],0.0544
same,Bliss excess,[8],-0.034
same,Bliss excess,[9],-0.0475
same,Bliss excess,KYM-1 (Rhabdomyosarcoma),-0.0017
same,Bliss excess,[10],-0.0135
same,Bliss excess,[11],-0.0546
same,Bliss excess,[12],-0.0552
same,Bliss excess,RT4 (Bladder Carcinoma),0.0704
same,Bliss excess,[13],0.0131
same,Bliss excess,[14],0.133
same,Bliss excess,[15],0.0245
same,Bliss excess,[16],-0.0236
same,Bliss excess,[17],0.132
same,Bliss excess,[18],-0.0358
